Source: ChEMBL document CHEMBL1201862, “PubChem BioAssay data set” (2004)
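Five compound concentrations were applied to cells in 96-well plates for 48 hours; endpoints were derived by simple linear interpolation of the resulting dose-response curve. The concentration for 50% growth inhibition is given as GI50.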 The source made the active and inactive calls. No stated cut-off is given here; in the data, active = GI50 up to about 1.1 µM and inactive = higher.

What was measured:
Assay in all cases: NCI tumour cell line growth inhibition, 48 h
786-0 = tested on: 786-0
UO-31 = tested on: UO-31
NCI-H460 = tested on: NCI-H460
SF-539 = tested on: SF-539
UACC-257 = tested on: UACC-257
SF-295 = tested on: SF-295
SW-620 = tested on: SW-620
LOX IMVI = tested on: LOX IMVI
SK-OV-3 = tested on: SK-OV-3
HL-60 = tested on: HL-60
A498 = tested on: A498
SK-MEL-2 = tested on: SK-MEL-2
OVCAR-8 = tested on: OVCAR-8
K562 = tested on: K562
OVCAR-5 = tested on: OVCAR-5
NCI-H23 = tested on: NCI-H23
TK-10 = tested on: TK-10
RXF 393 = tested on: RXF 393
RPMI-8226 = tested on: RPMI-8226
KM12 = tested on: KM12
MDA-N = tested on: MDA-N
SNB-75 = tested on: SNB-75
T47D = tested on: T47D
HT-29 = tested on: HT-29
BT-549 = tested on: BT-549
EKVX = tested on: EKVX
HOP-92 = tested on: HOP-92
HOP-62 = tested on: HOP-62
SN12C = tested on: SN12C
UACC-62 = tested on: UACC-62
OVCAR-3 = tested on: OVCAR-3
NCI/ADR-RES = tested on: NCI/ADR-RES
U-251 = tested on: U-251
HCT-116 = tested on: HCT-116
MDA-MB-435 = tested on: MDA-MB-435
COLO 205 = tested on: COLO 205
ACHN = tested on: ACHN
SNB-19 = tested on: SNB-19
PC-3 = tested on: PC-3
SK-MEL-5 = tested on: SK-MEL-5
SF-268 = tested on: SF-268
MCF7 = tested on: MCF7
Malme-3M = tested on: Malme-3M
SK-MEL-28 = tested on: SK-MEL-28
M14 = tested on: M14
CCRF-CEM = tested on: CCRF-CEM
HCT-15 = tested on: HCT-15
OVCAR-4 = tested on: OVCAR-4
MDA-MB-231 = tested on: MDA-MB-231
DU-145 = tested on: DU-145
IGROV-1 = tested on: IGROV-1
CAKI-1 = tested on: CAKI-1
Hs-578T = tested on: Hs-578T
NCI-H522 = tested on: NCI-H522
NCI-H226 = tested on: NCI-H226
A549 = tested on: A549
MOLT-4 = tested on: MOLT-4
HCC 2998 = tested on: HCC 2998

Measured: GI50

Cc1ccc(/N=N/c2c(O)c3ccccc3[nH]c2=O)c(S(=O)(=O)N(C)C)c1
inactive: 786-0 > 100 µM | UO-31 > 100 µM | NCI-H460 > 100 µM | SF-539 > 100 µM | UACC-257 > 100 µM | SF-295 > 100 µM | SW-620 > 100 µM | LOX IMVI > 100 µM | SK-OV-3 > 100 µM | HL-60 > 100 µM | A498 > 100 µM | SK-MEL-2 > 100 µM | OVCAR-8 > 100 µM | K562 > 100 µM | OVCAR-5 > 100 µM | NCI-H23 > 100 µM | TK-10 > 100 µM | RXF 393 > 100 µM | RPMI-8226 > 100 µM | KM12 > 100 µM | MDA-N > 100 µM | SNB-75 > 100 µM | T47D > 100 µM | HT-29 > 100 µM | BT-549 > 100 µM | EKVX > 100 µM | HOP-92 > 100 µM | HOP-62 > 100 µM | SN12C > 100 µM | UACC-62 > 100 µM | OVCAR-3 > 100 µM | NCI/ADR-RES > 100 µM | U-251 > 100 µM | HCT-116 > 100 µM | MDA-MB-435 > 100 µM | COLO 205 > 100 µM | ACHN > 100 µM | SNB-19 > 100 µM | PC-3 > 100 µM | SK-MEL-5 > 100 µM | SF-268 > 100 µM | MCF7 > 100 µM | Malme-3M > 100 µM | SK-MEL-28 > 100 µM | M14 > 100 µM | CCRF-CEM > 100 µM | OVCAR-4 > 100 µM | MDA-MB-231 > 100 µM | DU-145 > 100 µM | IGROV-1 > 100 µM | CAKI-1 > 100 µM | Hs-578T > 100 µM | NCI-H522 > 100 µM | NCI-H226 > 100 µM | A549 > 100 µM
> 100 µM: HCT-15

CCCn1c(C23CC4CC(CC(C4)C2)C3)nc2ccc(Cl)cc2c1=O
inactive: 786-0 34.2 µM | UO-31 15.6 µM | NCI-H460 36.1 µM | SF-539 > 100 µM | UACC-257 33.2 µM | SF-295 46.6 µM | MOLT-4 33.7 µM | SW-620 > 100 µM | LOX IMVI 36.6 µM | SK-OV-3 49.5 µM | HL-60 21.6 µM | A498 17.9 µM | SK-MEL-2 47.1 µM | OVCAR-8 44.4 µM | K562 43.6 µM | OVCAR-5 74.8 µM | NCI-H23 50.5 µM | TK-10 48.2 µM | RXF 393 7.11 µM | RPMI-8226 28.7 µM | KM12 31.9 µM | MDA-N 33 µM | T47D 25.8 µM | HT-29 24.9 µM | BT-549 44.2 µM | EKVX 23.9 µM | HOP-92 42.8 µM | HOP-62 23.4 µM | SN12C 35.2 µM | UACC-62 25.9 µM | OVCAR-3 49 µM | NCI/ADR-RES 21.9 µM | U-251 45.1 µM | HCT-116 30.1 µM | MDA-MB-435 36.6 µM | COLO 205 37.2 µM | ACHN 21.2 µM | SNB-19 49 µM | PC-3 37.1 µM | SK-MEL-5 41.3 µM | SF-268 > 100 µM | MCF7 23.7 µM | Malme-3M > 100 µM | SK-MEL-28 57.5 µM | M14 26.1 µM | CCRF-CEM 45.5 µM | OVCAR-4 42.2 µM | MDA-MB-231 > 100 µM | DU-145 27.9 µM | IGROV-1 51.9 µM | CAKI-1 30 µM | Hs-578T 63.2 µM | NCI-H522 47.2 µM | NCI-H226 > 100 µM | A549 31.2 µM
45.6 µM: HCT-15

CC(C)(C)[Si](C)(C)OC1CCOC1(O)c1ccccn1 (stereo not given)
> 100 µM: HCT-15
inactive: 786-0 > 100 µM | UO-31 > 100 µM | NCI-H460 > 100 µM | SF-539 > 100 µM | UACC-257 > 100 µM | SF-295 > 100 µM | MOLT-4 57.3 µM | SW-620 > 100 µM | LOX IMVI > 100 µM | SK-OV-3 > 100 µM | HL-60 32 µM | A498 > 100 µM | SK-MEL-2 > 100 µM | OVCAR-8 > 100 µM | K562 57.9 µM | OVCAR-5 > 100 µM | NCI-H23 > 100 µM | TK-10 > 100 µM | RXF 393 > 100 µM | RPMI-8226 53.7 µM | KM12 > 100 µM | MDA-N > 100 µM | SNB-75 > 100 µM | T47D > 100 µM | HT-29 > 100 µM | BT-549 > 100 µM | EKVX > 100 µM | HOP-92 > 100 µM | HOP-62 > 100 µM | SN12C > 100 µM | UACC-62 > 100 µM | OVCAR-3 > 100 µM | NCI/ADR-RES > 100 µM | U-251 39.6 µM | HCT-116 > 100 µM | MDA-MB-435 > 100 µM | COLO 205 > 100 µM | ACHN > 100 µM | HCC 2998 > 100 µM | SNB-19 > 100 µM | PC-3 > 100 µM | SK-MEL-5 > 100 µM | SF-268 > 100 µM | MCF7 > 100 µM | Malme-3M > 100 µM | SK-MEL-28 > 100 µM | M14 > 100 µM | CCRF-CEM 88.3 µM | OVCAR-4 > 100 µM | MDA-MB-231 > 100 µM | DU-145 > 100 µM | IGROV-1 > 100 µM | CAKI-1 > 100 µM | Hs-578T > 100 µM | NCI-H522 > 100 µM | NCI-H226 > 100 µM | A549 > 100 µM
